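Cells were grown in 96-well plates and exposed to each compound for 48 hours at five concentrations; endpoints were interpolated linearly between bracketing concentrations, or set to the highest concentration if not reached. TGI: concentration producing complete growth inhibition.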
test system: ACHN renal; assay: growth of human tumour cells (NCI), 48 h

Question: With Cc1c(C(=O)CC(=O)C(=O)Nc2ccccc2C(F)(F)F)[n+](=O)c2ccccc2n1[O-] as the molecule, how does the TGI read?
Answer: > 100 µM

Question: With COc1ccccc1N1C(=O)C2c3[nH]c4ccccc4c3C3CCC(C(C)(C)C)CC3C2C1=O (stereo not drawn) as the molecule, how does the TGI read?
Answer: > 100 µM

Question: For O=C1C=CC(=O)c2c1ccc1c3ccccc3n(CCCCCCCCCCCCn3c4ccccc4c4ccc5c(c43)C(=O)C=CC5=O)c21, which TGI is on record?
Answer: > 100 µM

Question: How did the TGI turn out when CC1(C)OC(=O)N(c2ccccc2)C12C=Cc1cc([N+](=O)[O-])cc([N+](=O)[O-])c1O2 (stereo not drawn) was run?
Answer: > 100 µM

Question: Which TGI does the source give for C=CCN1C[C@H](C)N([C@H](c2ccc(C(=O)NC(CC)CC)cc2)c2cccc(OC)c2)C[C@H]1C here?
Answer: > 100 µM

Question: Which TGI does the source give for CC(C)CCS(=O)(=O)OCCCCOS(=O)(=O)CCC(C)C here?
Answer: > 100 µM

Question: O=C1/C(=C\c2ccccc2)C(NC2CCCCC2)c2ccccc21 (stereo not drawn) was tested. Which TGI did it give?
Answer: 2.34 µM

test system: SNB-75 CNS; assay: growth of human tumour cells (NCI), 48 h

Question: For COc1ccccc1N1C(=O)C2c3[nH]c4ccccc4c3C3CCC(C(C)(C)C)CC3C2C1=O (stereo not drawn), which TGI is on record?
Answer: > 100 µM

Question: For O=C1C=CC(=O)c2c1ccc1c3ccccc3n(CCCCCCCCCCCCn3c4ccccc4c4ccc5c(c43)C(=O)C=CC5=O)c21, which TGI is on record?
Answer: > 100 µM

Question: With CC1(C)OC(=O)N(c2ccccc2)C12C=Cc1cc([N+](=O)[O-])cc([N+](=O)[O-])c1O2 (stereo not drawn) as the molecule, how does the TGI read?
Answer: > 100 µM

Question: C=CCN1C[C@H](C)N([C@H](c2ccc(C(=O)NC(CC)CC)cc2)c2cccc(OC)c2)C[C@H]1C was tested. Which TGI did it give?
Answer: > 100 µM

Question: For CC(C)CCS(=O)(=O)OCCCCOS(=O)(=O)CCC(C)C, which TGI is on record?
Answer: > 100 µM

Question: How did the TGI turn out when O=C1/C(=C\c2ccccc2)C(NC2CCCCC2)c2ccccc21 (stereo not drawn) was run?
Answer: 4.45 µM

test system: SNB-78 CNS; assay: growth of human tumour cells (NCI), 48 h

Question: With Cc1c(C(=O)CC(=O)C(=O)Nc2ccccc2C(F)(F)F)[n+](=O)c2ccccc2n1[O-] as the molecule, how does the TGI read?
Answer: > 100 µM

Question: How did the TGI turn out when COc1ccccc1N1C(=O)C2c3[nH]c4ccccc4c3C3CCC(C(C)(C)C)CC3C2C1=O (stereo not drawn) was run?
Answer: > 100 µM

Question: CC(C)CCS(=O)(=O)OCCCCOS(=O)(=O)CCC(C)C was tested. Which TGI did it give?
Answer: > 100 µM

test system: UO-31 renal; assay: growth of human tumour cells (NCI), 48 h

Question: Cc1c(C(=O)CC(=O)C(=O)Nc2ccccc2C(F)(F)F)[n+](=O)c2ccccc2n1[O-] was tested. Which TGI did it give?
Answer: > 100 µM

Question: COc1ccccc1N1C(=O)C2c3[nH]c4ccccc4c3C3CCC(C(C)(C)C)CC3C2C1=O (stereo not drawn) was tested. Which TGI did it give?
Answer: > 100 µM

Question: For O=C1C=CC(=O)c2c1ccc1c3ccccc3n(CCCCCCCCCCCCn3c4ccccc4c4ccc5c(c43)C(=O)C=CC5=O)c21, which TGI is on record?
Answer: > 100 µM

Question: Which TGI does the source give for CC1(C)OC(=O)N(c2ccccc2)C12C=Cc1cc([N+](=O)[O-])cc([N+](=O)[O-])c1O2 (stereo not drawn) here?
Answer: > 100 µM

Question: For C=CCN1C[C@H](C)N([C@H](c2ccc(C(=O)NC(CC)CC)cc2)c2cccc(OC)c2)C[C@H]1C, which TGI is on record?
Answer: 52.7 µM

Question: CC(C)CCS(=O)(=O)OCCCCOS(=O)(=O)CCC(C)C was tested. Which TGI did it give?
Answer: > 100 µM

Question: How did the TGI turn out when O=C1/C(=C\c2ccccc2)C(NC2CCCCC2)c2ccccc21 (stereo not drawn) was run?
Answer: 2.31 µM

test system: KM12 colon; assay: growth of human tumour cells (NCI), 48 h

Question: Which TGI does the source give for Cc1c(C(=O)CC(=O)C(=O)Nc2ccccc2C(F)(F)F)[n+](=O)c2ccccc2n1[O-] here?
Answer: 61.6 µM

Question: With O=C1C=CC(=O)c2c1ccc1c3ccccc3n(CCCCCCCCCCCCn3c4ccccc4c4ccc5c(c43)C(=O)C=CC5=O)c21 as the molecule, how does the TGI read?
Answer: > 100 µM

Question: CC1(C)OC(=O)N(c2ccccc2)C12C=Cc1cc([N+](=O)[O-])cc([N+](=O)[O-])c1O2 (stereo not drawn) was tested. Which TGI did it give?
Answer: > 100 µM

Question: How did the TGI turn out when C=CCN1C[C@H](C)N([C@H](c2ccc(C(=O)NC(CC)CC)cc2)c2cccc(OC)c2)C[C@H]1C was run?
Answer: > 100 µM

Question: CC(C)CCS(=O)(=O)OCCCCOS(=O)(=O)CCC(C)C was tested. Which TGI did it give?
Answer: > 100 µM

Question: With O=C1/C(=C\c2ccccc2)C(NC2CCCCC2)c2ccccc21 (stereo not drawn) as the molecule, how does the TGI read?
Answer: 15.9 µM

test system: M14 melanoma; assay: growth of human tumour cells (NCI), 48 h

Question: How did the TGI turn out when Cc1c(C(=O)CC(=O)C(=O)Nc2ccccc2C(F)(F)F)[n+](=O)c2ccccc2n1[O-] was run?
Answer: 39 µM

Question: How did the TGI turn out when COc1ccccc1N1C(=O)C2c3[nH]c4ccccc4c3C3CCC(C(C)(C)C)CC3C2C1=O (stereo not drawn) was run?
Answer: > 100 µM

Question: Which TGI does the source give for O=C1C=CC(=O)c2c1ccc1c3ccccc3n(CCCCCCCCCCCCn3c4ccccc4c4ccc5c(c43)C(=O)C=CC5=O)c21 here?
Answer: > 100 µM

Question: With CC1(C)OC(=O)N(c2ccccc2)C12C=Cc1cc([N+](=O)[O-])cc([N+](=O)[O-])c1O2 (stereo not drawn) as the molecule, how does the TGI read?
Answer: > 100 µM

Question: C=CCN1C[C@H](C)N([C@H](c2ccc(C(=O)NC(CC)CC)cc2)c2cccc(OC)c2)C[C@H]1C was tested. Which TGI did it give?
Answer: 34.4 µM

Question: For CC(C)CCS(=O)(=O)OCCCCOS(=O)(=O)CCC(C)C, which TGI is on record?
Answer: 29.6 µM

Question: How did the TGI turn out when O=C1/C(=C\c2ccccc2)C(NC2CCCCC2)c2ccccc21 (stereo not drawn) was run?
Answer: 3.18 µM

test system: HL-60(TB) leukemia; assay: growth of human tumour cells (NCI), 48 h

Question: How did the TGI turn out when Cc1c(C(=O)CC(=O)C(=O)Nc2ccccc2C(F)(F)F)[n+](=O)c2ccccc2n1[O-] was run?
Answer: 66.2 µM

Question: COc1ccccc1N1C(=O)C2c3[nH]c4ccccc4c3C3CCC(C(C)(C)C)CC3C2C1=O (stereo not drawn) was tested. Which TGI did it give?
Answer: > 100 µM

Question: Which TGI does the source give for O=C1C=CC(=O)c2c1ccc1c3ccccc3n(CCCCCCCCCCCCn3c4ccccc4c4ccc5c(c43)C(=O)C=CC5=O)c21 here?
Answer: > 91.3 µM

Question: CC1(C)OC(=O)N(c2ccccc2)C12C=Cc1cc([N+](=O)[O-])cc([N+](=O)[O-])c1O2 (stereo not drawn) was tested. Which TGI did it give?
Answer: > 100 µM

Question: C=CCN1C[C@H](C)N([C@H](c2ccc(C(=O)NC(CC)CC)cc2)c2cccc(OC)c2)C[C@H]1C was tested. Which TGI did it give?
Answer: 32.4 µM

Question: For CC(C)CCS(=O)(=O)OCCCCOS(=O)(=O)CCC(C)C, which TGI is on record?
Answer: > 100 µM

Question: With O=C1/C(=C\c2ccccc2)C(NC2CCCCC2)c2ccccc21 (stereo not drawn) as the molecule, how does the TGI read?
Answer: 3.02 µM

test system: MDA-MB-435; assay: growth of human tumour cells (NCI), 48 h

Question: For O=C1C=CC(=O)c2c1ccc1c3ccccc3n(CCCCCCCCCCCCn3c4ccccc4c4ccc5c(c43)C(=O)C=CC5=O)c21, which TGI is on record?
Answer: > 100 µM

Question: With CC1(C)OC(=O)N(c2ccccc2)C12C=Cc1cc([N+](=O)[O-])cc([N+](=O)[O-])c1O2 (stereo not drawn) as the molecule, how does the TGI read?
Answer: > 100 µM

Question: C=CCN1C[C@H](C)N([C@H](c2ccc(C(=O)NC(CC)CC)cc2)c2cccc(OC)c2)C[C@H]1C was tested. Which TGI did it give?
Answer: > 100 µM

Question: Which TGI does the source give for O=C1/C(=C\c2ccccc2)C(NC2CCCCC2)c2ccccc21 (stereo not drawn) here?
Answer: 3.18 µM

test system: DMS 273 small cell lung; assay: growth of human tumour cells (NCI), 48 h

Question: Which TGI does the source give for Cc1c(C(=O)CC(=O)C(=O)Nc2ccccc2C(F)(F)F)[n+](=O)c2ccccc2n1[O-] here?
Answer: 59.9 µM

— PubChem BioAssay (NCI)
